# Measured values reported in patent US5510385A, “Pharmaceutical compositions containing the salts of S(+)-2-(4-isobutylphenyl)propionic acid with basic aminoacids” (priority 1993, dated 1996).
# Where a name gives a salt, the structure may show the parent alone.
# Tests used:
# [1] = in words, versus Ibuprofen (and, EP 424028, Ibuprofen salts and S(+)-Ibuprofen); cited from earlier work
# [2] = S(+)-Ibuprofen plasma concentrations and bioavailability parameters after single oral dose, cross-over (Examples 6-10, HPLC)
# Protocol: Each subject was apparently healthy, especially as lap as the Renal, hepatic and hematopoietic functions were concerned.
# For the trial, a cross-over design was adopted: each subject received both preparations in two treatment sessions carried out in two different weeks randomizing the order of the administration.
# Further, samples of venous blood were withdrawn at 5, 10, 15, 30, 45, 60, 90, 120, 240 and 480 minutes after the treatment. Plasma was then prepared by centrifugation and preserved at -20° C. until the analysis.
# The analytical determination of the active ingredient in the plasma samples was carried out by HPLC method as described hereinafter. Chromatographic conditions:
# Apparatus: JASCO BIP-1 with U.V. detector UVI DEC-100 v
# Column: Chiral AGP, 100×4.0 mm, 5 μm (Chron Tech) with a precolumn Chiral AGP 10×3.0 mm (Chron Tech) […]
# The following parameters were calculated:
# the area under curve of S(+)-Ibuprofen plasma concentration from time "zero" to "infinite" (AUCtot) was calculated by the following formula: AUCtot =AUCo→480 +AUC480→- wherein AUC480- =concentration at 480 minutes/Ke. and Ke =elimination constant
# mean peak time (tmax), expressed as minutes, was obtained from the average of each peak time
# the mean peak of maximum plasma concentration (Cmax), expressed as μg/ml, was calculated by the average of each concentration peak value.
SMILES,analgesic effect (onset and duration) [1],"increase of S(+)-Ibuprofen maximum plasma concentration over equivalent Ibuprofen salt composition ([2]; 400 mg or 300 mg of S(+)-Ibuprofen versus 800 mg or 600 mg of Ibuprofen, oral)","S(+)-Ibuprofen maximum plasma concentration (Cmax) compared with equivalent racemic Ibuprofen treatment ([2]; in words, versus reference treatment)"
"CC(C)Cc1ccc([C@H](C)C(=O)O)cc1 [S(+)-Ibuprofen, (S)-enantiomer of 2-(4-isobutylphenyl)propionic acid]","faster, and consequently a longer, analgesic effect than Ibuprofen",–,–
"CC(C)Cc1ccc([C@H](C)C(=O)O)cc1 [S(+)-Ibuprofen arginate, salt of S(+)-Ibuprofen with L-arginine]",–,15-20%,substantially equal
